This passage reports IC50 results from patent publication US9902696B2, “1,4-substituted piperidine derivatives” (Cephalon, Inc., priority 2015, dated 2018).

Structures are written as SMILES.

The target of this assay is T1, recombinant human baculovirus-expressed GST-tagged FASN (Homo sapiens, UniProt P49327).
T1 construct: GST
T1 sequence (P49327 whole entry): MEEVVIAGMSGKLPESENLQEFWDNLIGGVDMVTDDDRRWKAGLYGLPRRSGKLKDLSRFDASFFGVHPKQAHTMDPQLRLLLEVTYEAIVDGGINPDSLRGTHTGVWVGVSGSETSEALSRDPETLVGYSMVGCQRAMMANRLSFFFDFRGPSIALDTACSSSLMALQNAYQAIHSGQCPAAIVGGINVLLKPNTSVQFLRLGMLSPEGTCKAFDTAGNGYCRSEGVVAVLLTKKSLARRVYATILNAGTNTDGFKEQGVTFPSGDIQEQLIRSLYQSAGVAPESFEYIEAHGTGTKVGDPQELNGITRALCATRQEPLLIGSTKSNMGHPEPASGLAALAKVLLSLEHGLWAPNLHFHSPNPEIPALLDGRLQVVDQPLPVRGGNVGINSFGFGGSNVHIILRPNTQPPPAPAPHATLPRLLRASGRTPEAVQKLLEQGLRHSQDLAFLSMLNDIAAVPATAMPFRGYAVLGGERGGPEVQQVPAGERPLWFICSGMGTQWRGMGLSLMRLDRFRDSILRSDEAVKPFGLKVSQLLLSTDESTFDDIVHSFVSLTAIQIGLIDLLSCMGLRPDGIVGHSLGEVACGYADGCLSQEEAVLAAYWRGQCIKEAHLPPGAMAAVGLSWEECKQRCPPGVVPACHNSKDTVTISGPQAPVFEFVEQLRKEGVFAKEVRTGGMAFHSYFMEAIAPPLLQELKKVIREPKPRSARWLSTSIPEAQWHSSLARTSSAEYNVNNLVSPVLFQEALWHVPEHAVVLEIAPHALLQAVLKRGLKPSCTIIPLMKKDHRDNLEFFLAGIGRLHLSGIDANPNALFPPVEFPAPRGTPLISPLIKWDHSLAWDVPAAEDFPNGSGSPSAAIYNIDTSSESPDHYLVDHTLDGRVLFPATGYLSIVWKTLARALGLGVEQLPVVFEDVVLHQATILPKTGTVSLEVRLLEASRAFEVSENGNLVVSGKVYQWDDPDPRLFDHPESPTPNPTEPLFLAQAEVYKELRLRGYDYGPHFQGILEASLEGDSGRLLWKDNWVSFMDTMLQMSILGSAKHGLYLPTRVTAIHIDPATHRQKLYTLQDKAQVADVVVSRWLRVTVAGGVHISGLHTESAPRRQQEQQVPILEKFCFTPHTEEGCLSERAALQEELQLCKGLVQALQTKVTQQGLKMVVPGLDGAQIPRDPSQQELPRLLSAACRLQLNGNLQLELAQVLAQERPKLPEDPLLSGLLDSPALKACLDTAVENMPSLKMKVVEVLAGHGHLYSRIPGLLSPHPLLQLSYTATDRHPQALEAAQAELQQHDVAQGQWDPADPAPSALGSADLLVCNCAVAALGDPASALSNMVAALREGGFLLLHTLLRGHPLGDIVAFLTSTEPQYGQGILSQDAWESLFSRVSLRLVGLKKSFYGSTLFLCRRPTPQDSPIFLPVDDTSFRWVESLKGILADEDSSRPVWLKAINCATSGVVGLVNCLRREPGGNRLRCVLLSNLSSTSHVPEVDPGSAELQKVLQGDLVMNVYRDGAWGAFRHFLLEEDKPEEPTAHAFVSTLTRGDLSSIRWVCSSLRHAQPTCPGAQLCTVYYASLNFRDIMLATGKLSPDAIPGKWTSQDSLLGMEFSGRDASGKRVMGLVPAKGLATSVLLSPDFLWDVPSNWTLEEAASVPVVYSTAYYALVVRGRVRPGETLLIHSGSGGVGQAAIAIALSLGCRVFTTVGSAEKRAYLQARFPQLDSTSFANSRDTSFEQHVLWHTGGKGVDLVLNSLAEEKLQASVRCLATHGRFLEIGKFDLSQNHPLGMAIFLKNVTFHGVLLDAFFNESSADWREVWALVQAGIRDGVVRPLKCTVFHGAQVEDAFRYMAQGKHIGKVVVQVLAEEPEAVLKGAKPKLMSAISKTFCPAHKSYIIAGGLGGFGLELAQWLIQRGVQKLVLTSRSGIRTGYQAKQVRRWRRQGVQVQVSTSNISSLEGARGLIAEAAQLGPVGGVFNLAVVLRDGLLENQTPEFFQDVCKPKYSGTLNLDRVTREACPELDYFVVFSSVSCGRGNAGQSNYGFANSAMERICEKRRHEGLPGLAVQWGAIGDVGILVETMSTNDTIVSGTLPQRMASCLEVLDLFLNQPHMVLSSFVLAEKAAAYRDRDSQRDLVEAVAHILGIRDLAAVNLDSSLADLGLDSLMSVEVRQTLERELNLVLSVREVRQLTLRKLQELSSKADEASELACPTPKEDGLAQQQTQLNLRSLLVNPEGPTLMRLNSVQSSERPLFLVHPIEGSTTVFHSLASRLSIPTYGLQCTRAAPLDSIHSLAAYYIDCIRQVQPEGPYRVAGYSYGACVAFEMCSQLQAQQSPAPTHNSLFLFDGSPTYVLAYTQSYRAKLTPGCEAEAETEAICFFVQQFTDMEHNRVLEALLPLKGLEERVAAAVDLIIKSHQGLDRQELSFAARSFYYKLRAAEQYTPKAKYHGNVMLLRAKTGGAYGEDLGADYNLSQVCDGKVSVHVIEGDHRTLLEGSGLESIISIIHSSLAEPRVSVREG
Briefly: FASN enzyme activity assay, fluorescence-based detection of CoA with CPM. The assay is classed as biochemical. As to conditions: 5 nM FASN, 150 μM NADPH, 10 μM acetyl-CoA, 25 μM malonyl-CoA, 90 minutes incubation; read-out: IC50 data for Compounds of Formulae I-V/V(a): Activity. The method, boiled down:
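Human GST-tagged FASN, baculovirus-expressed (5 nM), in 50 mM HEPES pH 7.5 with 150 μM NADPH, 10 μM acetyl-CoA, 25 μM malonyl-CoA, 0.5% DMSO; malonyl-CoA-started, 90 min. Released CoA detected with CPM (50 μM dilution), 30 min, fluorescence ex 390/em 530. IC50 from variable-slope sigmoidal fit of % inhibition versus log concentration.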
In the case of `CC(C)C(=O)N1CCC(Oc2ccc(-c3cnc4ccccc4c3)cc2Cl)CC1` [Example 192, 1-[4-(2-Chloro-4-quinolin-3-yl-phenoxy)-piperidin-1-yl]-2-methyl-propan-1-one], the IC50 was in the range of 1000 to 10000 nM. For the compound `O=C(C1CC1)N1CCC(Oc2ccc(-c3cnc4ccccc4c3)cc2Cl)CC1` [Example 193, [4-(2-Chloro-4-quinolin-3-yl-phenoxy)-piperidin-1-yl]-cyclopropyl-methanone], the IC50 was in the range of 1000 to 10000 nM.

As for `CCC(=O)N1CCC(Oc2ccc(-c3ccc4cccnc4c3)cc2Cl)CC1` [Example 194, 1-[4-(2-Chloro-4-quinolin-7-yl-phenoxy)-piperidin-1-yl]-propan-1-one], the IC50 lay in the range of 1000 to 10000 nM.

As for `CC(C)C(=O)N1CCC(Oc2ccc(-c3ccc4cccnc4c3)cc2Cl)CC1` [Example 195, 1-[4-(2-Chloro-4-quinolin-7-yl-phenoxy)-piperidin-1-yl]-2-methyl-propan-1-one], the IC50 was 1000 to 10000 nM.

As for `CCC(=O)N1CCC(Oc2ccc(-c3cnc4ccccc4c3)cc2OC)CC1` [Example 196, 1-[4-(2-Methoxy-4-quinolin-3-yl-phenoxy)-piperidin-1-yl]-propan-1-one], the IC50 lay in the range of 1000 to 10000 nM. On to `COc1cc(-c2cnc3ccccc3c2)ccc1OC1CCN(C(=O)C(C)C)CC1` [Example 197, 1-[4-(2-Methoxy-4-quinolin-3-yl-phenoxy)-piperidin-1-yl]-2-methyl-propan-1-one], for which the IC50 was in the range of 1000 to 10000 nM. For the compound `COc1cc(-c2cnc3ccccc3c2)ccc1OC1CCN(C(=O)C2CC2)CC1` [Example 198, Cyclopropyl-[4-(2-methoxy-4-quinolin-3-yl-phenoxy)-piperidin-1-yl]-methanone], the IC50 was 1000 to 10000 nM. `CCC(=O)N1CCC(Oc2ccc(-c3ccc4cccnc4c3)cc2OC)CC1` [Example 199, 1-[4-(2-Methoxy-4-quinolin-7-yl-phenoxy)-piperidin-1-yl]-propan-1-one]: the IC50 lay in the range of 1000 to 10000 nM. For the compound `CCC(=O)N1CCC(Oc2ccc(-c3cnc4ccccc4c3)c(F)c2)CC1` [Example 200, 1-[4-(3-Fluoro-4-quinolin-3-yl-phenoxy)-piperidin-1-yl]-propan-1-one], the IC50 lay within 1 to 99 nM. To `O=C(C1CC1)N1CCC(Oc2ccc(-c3cnc4ccccc4c3)c(F)c2)CC1` [Example 202, Cyclopropyl-[4-(3-fluoro-4-quinolin-3-yl-phenoxy)-piperidin-1-yl]-methanone] belongs 1 to 99 nM; to `CCC(=O)N1CCC(Oc2ccc(-c3cnc4ccccc4c3)c(Cl)c2)CC1` [Example 203, 1-[4-(3-Chloro-4-quinolin-3-yl-phenoxy)-piperidin-1-yl]-propan-1-one], 1 to 99 nM; to `CC(C)C(=O)N1CCC(Oc2ccc(-c3cnc4ccccc4c3)c(Cl)c2)CC1` [Example 204, 1-[4-(3-Chloro-4-quinolin-3-yl-phenoxy)-piperidin-1-yl]-2-methyl-propan-1-one], 100 to 999 nM.

For the compound `O=C(C1CC1)N1CCC(Oc2ccc(-c3cnc4ccccc4c3)c(Cl)c2)CC1` [Example 205, [4-(3-Chloro-4-quinolin-3-yl-phenoxy)-piperidin-1-yl]-cyclopropyl-methanone], the IC50 is 1 to 99 nM. Regarding `Cc1cc(OC2CCN(C(=O)C(C)C)CC2)ccc1-c1cnc2ccccc2c1` [Example 206, 2-Methyl-1-[4-(3-methyl-4-quinolin-3-yl-phenoxy)-piperidin-1-yl]-propan-1-one], the IC50 is 1000 to 10000 nM.

As for `CCC(=O)N1CCC(Oc2ccc(-c3cnc4ccccc4c3)c(C)c2)CC1` [Example 207, 1-[4-(3-Methyl-4-quinolin-3-yl-phenoxy)-piperidin-1-yl]-propan-1-one], the IC50 was in the range of 100 to 999 nM. In the case of `COC(=O)N1CCC(Oc2ccc(-c3cnc4ccccc4c3)c(C)c2)CC1` [Example 208, 4-(3-Methyl-4-quinolin-3-yl-phenoxy)-piperidine-1-carboxylic acid methyl ester], the IC50 fell in the range of 1000 to 10000 nM. On to `CCC(=O)N1CCC(Oc2ccc(-c3cnc4ccccc4c3)c(OC)c2)CC1` [Example 209, 1-[4-(3-Methoxy-4-quinolin-3-yl-phenoxy)-piperidin-1-yl]-propan-1-one], for which the IC50 lay in the range of 1000 to 10000 nM. The value for `COc1cc(OC2CCN(C(=O)C(C)C)CC2)ccc1-c1cnc2ccccc2c1` [Example 210, 1-[4-(3-Methoxy-4-quinolin-3-yl-phenoxy)-piperidin-1-yl]-2-methyl-propan-1-one] was 1000 to 10000 nM. On to `COc1cc(OC2CCN(C(=O)C3CC3)CC2)ccc1-c1cnc2ccccc2c1` [Example 211, Cyclopropyl-[4-(3-methoxy-4-quinolin-3-yl-phenoxy)-piperidin-1-yl]-methanone], for which the IC50 lay within 1000 to 10000 nM.

`CCC(=O)N1CCC(Oc2ccc(-c3cnc4ccccc4c3)cc2C)CC1` [Example 212, 1-[4-(2-Methyl-4-quinolin-3-yl-phenoxy)-piperidin-1-yl]-propan-1-one]: the IC50 lay in the range of 1000 to 10000 nM. `Cc1cc(-c2cnc3ccccc3c2)ccc1OC1CCN(C(=O)C(C)C)CC1` [Example 213, 2-Methyl-1-[4-(2-methyl-4-quinolin-3-yl-phenoxy)-piperidin-1-yl]-propan-1-one]: the IC50 lay in the range of 1000 to 10000 nM. On to `Cc1cc(-c2cnc3ccccc3c2)ccc1OC1CCN(C(=O)C2CC2)CC1` [Example 214, Cyclopropyl-[4-(2-methyl-4-quinolin-3-yl-phenoxy)-piperidin-1-yl]-methanone], for which the IC50 fell in the range of 1000 to 10000 nM.

On to `CCC(=O)N1CCC(Oc2cc(F)c(-c3cnc4ccccc4c3)cc2F)CC1` [Example 215, 1-[4-(2,5-Difluoro-4-quinolin-3-yl-phenoxy)-piperidin-1-yl]-propan-1-one], for which the IC50 is 100 to 999 nM. As to `CC(C)C(=O)N1CCC(Oc2cc(F)c(-c3cnc4ccccc4c3)cc2F)CC1` [Example 216, 1-[4-(2,5-Difluoro-4-quinolin-3-yl-phenoxy)-piperidin-1-yl]-2-methyl-propan-1-one], the IC50 fell in the range of 1000 to 10000 nM. On to `O=C(C1CC1)N1CCC(Oc2cc(F)c(-c3cnc4ccccc4c3)cc2F)CC1` [Example 217, Cyclopropyl-[4-(2,5-difluoro-4-quinolin-3-yl-phenoxy)-piperidin-1-yl]-methanone], for which the IC50 was in the range of 100 to 999 nM. Take `N#CCC(=O)N1CCC(Oc2ccc(-c3cnc4ccccc4c3)cc2)CC1` [Example 218, 3-Oxo-3-[4-(4-quinolin-3-yl-phenoxy)-piperidin-1-yl]-propionitrile]: the IC50 lay within 1000 to 10000 nM. Consider `CCC(=O)N1CCC(Oc2ccc(-c3ccc4cccnc4c3OC)cc2F)CC1` [Example 219, 1-{4-[2-Fluoro-4-(8-methoxy-quinolin-7-yl)-phenoxy]-piperidin-1-yl}-propan-1-one], for which the IC50 lay within 1 to 99 nM.

Turning to `COc1c(-c2ccc(OC3CCN(C(=O)C4CC4)CC3)c(F)c2)ccc2cccnc12` [Example 220, Cyclopropyl-{4-[2-fluoro-4-(8-methoxyquinolin-7-yl)-phenoxy]-piperidin-1-yl}-methanone], the IC50 fell in the range of 1 to 99 nM. In the case of `COc1c(-c2ccc(OC3CCN(C(=O)[C@H]4CCCO4)CC3)c(F)c2)ccc2cccnc12` [Example 221, {4-[2-Fluoro-4-(8-methoxyquinolin-7-yl)-phenoxy]-piperidin-1-yl}-(R)-tetrahydrofuran-2-yl-methanone], the IC50 is 1 to 99 nM. For `O=C(C1CC1)N1CCC(Oc2ccc(-c3ccc4cccnc4c3Cl)cc2F)CC1` [Example 222, {4-[4-(8-Chloroquinolin-7-yl)-2-fluorophenoxy]-piperidin-1-yl}-cyclopropyl-methanone], the IC50 was 1 to 99 nM.

With `O=C([C@H]1CCCO1)N1CCC(Oc2ccc(-c3ccc4cccnc4c3Cl)cc2F)CC1` [Example 223, {4-[4-(8-Chloroquinolin-7-yl)-2-fluorophenoxy]-piperidin-1-yl}-(R)-tetrahydrofuran-2-yl-methanone], the IC50 is 1 to 99 nM. In the case of `CCC(=O)N1CCC(Oc2ccc(-c3ccc4cccnc4c3Cl)cc2F)CC1` [Example 224, 1-{4-[4-(8-Chloroquinolin-7-yl)-2-fluorophenoxy]-piperidin-1-yl}-propan-1-one], the IC50 lay in the range of 1 to 99 nM. The value for `CCC(=O)N1CCC(Oc2ccc(-c3ccc4cccnc4c3C)cc2F)CC1` [Example 225, 1-{4-[2-Fluoro-4-(8-methylquinolin-7-yl)-phenoxy]-piperidin-1-yl}-propan-1-one] was 1 to 99 nM; that for `Cc1c(-c2ccc(OC3CCN(C(=O)[C@H]4CCCO4)CC3)c(F)c2)ccc2cccnc12` [Example 226, {4-[2-Fluoro-4-(8-methylquinolin-7-yl)-phenoxy]-piperidin-1-yl}-(R)-tetrahydrofuran-2-yl-methanone] was 1 to 99 nM.

As for `Cc1c(-c2ccc(OC3CCN(C(=O)C4CC4)CC3)c(F)c2)ccc2cccnc12` [Example 227, Cyclopropyl-{4-[2-fluoro-4-(8-methylquinolin-7-yl)-phenoxy]-piperidin-1-yl}-methanone], the IC50 is 1 to 99 nM. The value for `CCC(=O)N1CCC(Oc2ccc(-c3cnc4ccccc4c3C)cc2F)CC1` [Example 228, 1-{4-[2-Fluoro-4-(4-methylquinolin-3-yl)-phenoxy]-piperidin-1-yl}-propan-1-one] was 100 to 999 nM; that for `Cc1c(-c2ccc(OC3CCN(C(=O)C4CC4)CC3)c(F)c2)cnc2ccccc12` [Example 229, Cyclopropyl-{4-[2-fluoro-4-(4-methylquinolin-3-yl)-phenoxy]-piperidin-1-yl}-methanone] was 100 to 999 nM. For `Cc1c(-c2ccc(OC3CCN(C(=O)[C@H]4CCCO4)CC3)c(F)c2)cnc2ccccc12` [Example 230, {4-[2-Fluoro-4-(4-methylquinolin-3-yl)-phenoxy]-piperidin-1-yl}-(R)-tetrahydrofuran-2-yl-methanone], the IC50 lay in the range of 1 to 99 nM. The value for `CCC(=O)N1CCC(Oc2ccc(-c3cnc4ccccc4c3N)cc2)CC1` [Example 231, 1-{4-[4-(4-Aminoquinolin-3-yl)-phenoxy]-piperidin-1-yl}-propan-1-one] was 1000 to 10000 nM.
